Patent US20240002441A1, “PEPTIDES AND USES THEREOF IN MODULATION OF AMYLOID-BETA PROTEIN DEGRADING PROTEASES” (priority 2020, published 2024)
Like-named read-outs stand apart in the source and are kept apart here.

Columns and labels:
ECE1 = biological target: T1, ECE1 (Homo sapiens, UniProt P42892); assay: QFS assay of Aβ-degrading enzymes: ECE1 (Example 6); type: biochemical
T1 construct: purchased R & D systems 1784-ZN-010
T1 sequence (P42892 1-770): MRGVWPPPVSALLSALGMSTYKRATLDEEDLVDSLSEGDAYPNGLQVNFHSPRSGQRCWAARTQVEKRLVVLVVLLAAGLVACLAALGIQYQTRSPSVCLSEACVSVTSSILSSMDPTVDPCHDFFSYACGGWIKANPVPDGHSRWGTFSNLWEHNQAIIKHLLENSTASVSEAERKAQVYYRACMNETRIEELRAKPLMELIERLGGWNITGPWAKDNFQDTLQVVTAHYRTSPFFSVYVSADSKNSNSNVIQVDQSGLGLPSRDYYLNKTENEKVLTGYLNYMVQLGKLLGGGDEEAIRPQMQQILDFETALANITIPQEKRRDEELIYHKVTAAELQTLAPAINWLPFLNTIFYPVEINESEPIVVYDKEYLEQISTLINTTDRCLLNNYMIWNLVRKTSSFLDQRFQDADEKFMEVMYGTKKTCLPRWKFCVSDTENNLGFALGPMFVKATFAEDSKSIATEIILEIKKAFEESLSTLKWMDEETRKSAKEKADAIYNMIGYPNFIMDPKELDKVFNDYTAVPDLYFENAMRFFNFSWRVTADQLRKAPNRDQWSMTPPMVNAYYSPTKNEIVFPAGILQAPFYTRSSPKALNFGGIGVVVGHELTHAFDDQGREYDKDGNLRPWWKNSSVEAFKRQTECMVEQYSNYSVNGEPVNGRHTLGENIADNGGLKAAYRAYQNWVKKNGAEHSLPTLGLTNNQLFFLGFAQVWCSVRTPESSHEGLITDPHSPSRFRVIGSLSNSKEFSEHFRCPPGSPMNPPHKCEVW
Protocol: Plate reader-based enzyme assays were performed using a quenched fluorescent substrate (QFS) in a 96-well format using a SpectraMAX M4 Microplate reader (Molecular Devices). The increase in fluorescence following addition of QFS (40 μM) was taken as evidence of enzyme activity. Fluorescence was monitored over 2 h at 37° C. using κEx=320 nm and λEm=405 nm. Assays were conducted in black 96-well plates. Specific enzyme activity was expressed as a rate of substrate cleavage calculated using a standard curve of 7-methoxy-coumarin-4-acetic acid.
In all plate reader-based enzyme assays using QFS, the reaction rate (μmol of substrate cleaved/min) was calculated using linear regression analysis (GraphPad Prism software version 8.01). The reaction rates calculated were used to generate the enzyme kinetic parameters Vmax and Km through non-linear regression analysis (GraphPad Prism software, version 8.01; Michaelis-Menten equation). Where indicated, enzyme activity in the presence of peptide was expressed as a % of the enzyme alone. Data were expressed as mean±SEM and statistical significance was determined using t-tests or one-way ANOVAs followed by Tukey's post-hoc test. P<0.05 was considered as statistically significant. […]
SEQ ID NO:2 was assessed in a QFS assay against enzymes NEP, ECE1, ECE2, ACE1, ACE2, IDE and MMP-2 using the method in Example 2 and the following procedure. […]

SARS-CoV-2 [1] = type: cell-based; conditions: post-treatment, Vero cells; for IL-6 expression compared to PBS: normalised to GAPDH
EA.hy926 cells = assay: Peptide stability study in EA.hy926 endothelial cells, LCMS (Example 4); type: in vitro ADME; conditions: peptide 9 μM, Opti-MEM
Protocol: SEQ ID NO:2 was prepared as a C-terminal amidated analogue of SEQ ID NO:1. The stability of SEQ ID NO:1 and SEQ ID NO:2 was assessed in HEK293 and EA.hy926 cells grown in culture and their break down was monitored by LCMS over 60 min using the following procedure.
HEK293 (passage 24) or Ea.hy926 (passage 37) were seeded into tissue-culture-grade 96-well plates at a density of 20,000 cells/well. After 24 hr, cells were washed with PBS and replaced with Opti-MEM reduced serum media containing SEQ ID NO:1 or SEQ ID NO:2 (9 μM). Aliquots of equal volume were taken at T=0 and 60 min. SEQ ID NO:2 was added to control wells having media (no cells) only. Samples were immediately acidified in 0.1% TFA, snap frozen in dry ice and stored in −80° C. until analysed by LCMS.
Samples were analyzed by LC-MS/MS on a Shimadzu Nexera uHPLC (Japan) coupled to a Triple Tof 5600 mass spectrometer (ABSCIEX, Canada) equipped with a duo electrospray ion source. One μL of each extract was injected onto a 2.1 mm×100 mm Zorbax C18 1.8 um column (Agilent) at 200 μL/min. […] SEQ ID NO:1 and SEQ ID NO:2 were quantified using the […] doubly charged molecular ion from m/z 510.270 to 510.325. The data was acquired using Analyst TF 1.6 and quantification was carried out using MultiQuant 2.1.1 software (ABSCIEX, Canada).

SARS-CoV-2 [2] = type: cell-based; conditions: pre-treatment, Vero cells, 8 h

Substance: H-SLFELGKMIL-NH2 [SEQ ID NO:2, H2N-SLFELGKMIL-NH2]
- ECE1 activity compared with respective enzyme alone (ECE1; peptide 2 μM (FIG. 2c)): did not increase
- ECE1 activity, concentration dependence (ECE1; peptide 0.9-26 μM): did not affect
- viral RNA compared to PBS (SARS-CoV-2 [1]; 200 ng/μL): significantly reduced
- IL-6 expression compared to PBS (SARS-CoV-2 [1]; 200 ng/μL): significantly reduced
- viral RNA compared to PBS (SARS-CoV-2 [1]; 400 ng/μL): significantly reduced
- viral titre compared to PBS (SARS-CoV-2 [1]; 400 ng/μL): significantly reduced
- IL-6 expression compared to PBS (SARS-CoV-2 [1]; 400 ng/μL): significantly reduced
- relative amount remaining in the medium of endothelial cells at 60 min (EA.hy926 cells): 26%±5%
- viral titre compared to PBS (SARS-CoV-2 [2]; 200 ng/μL): significantly reduced
- viral RNA compared to PBS (SARS-CoV-2 [2]; 400 ng/μL): significantly reduced
- viral titre compared to PBS (SARS-CoV-2 [2]; 400 ng/μL): significantly reduced
